From patent publication US20260207551A1, “PHOSPHOGLICERATE DEHYDROGENASE INHIBITORS FOR THE TREATMENT OF FIBROSIS” (CHIESI FARMACEUTICI S.P.A., priority 2022, published 2026)
Like-named read-outs stand apart in the source and are kept apart here.

Columns and labels:
[1] = test system: synthesis of 13C3-serine; experiment: PK/PD model: in vivo [13C6] glucose tracing, inhibition of 13C3-serine synthesis; set-up: species or system mouse male (C57BL/6J); conditions: for inhibition at 300 mg/kg: Mus musculus
Protocol: As PHGDH catalyzes the rate-limiting step of glucose-derived serine synthesis, a pharmacokinetic/pharmacodynamic (PK/PD) experiment aimed to assess the inhibition of the synthesis of ^13C3-serine after oral administration of ^13C6-glucose was performed in mouse male (C57BL/6J).
Animals were fasted overnight before treatment. Following 0.5 h from administration of either Compound 19 at dose of 300 mg/kg or vehicle (0.5% Tween 80, 0.5% Methylcellulose in H2O), ^13C6-glucose was administered by oral gavage (2 g/kg, Merck Life Science Srl). Blood, lung, and brain samples were collected at 1 h, 6.5 h and 24.5 h after treatment with Compound 19 or vehicle.
The tissue concentration of ^13C3-serine was determined by a liquid chromatography-tandem mass spectrometry (LC/MS/MS) assay. GraphPad Prism (version 8.1.2) was used for drawing graphs and for statistical analysis. Plasma or tissue homogenate samples (tissues were homogenized with a water/acetonitrile 50/50 mixture) were extracted with 3 volumes of acetonitrile. Supernanatant was injected into HPLC system (Agilent 1260 Quaternary Pump equipped with an Agilent 1200 High Performance Autosampler SL; Agilent), using a Kinetex EVO C18 analytical column (100 A, 50×2.1 mm, 2.6 μm; Phenomenex) for the analysis of Compound 19 or an InfinityLab Poroshell 120 Hilic-Z (50×2.1 mm 2.7 μm; Agilent) for the analysis of ^13C3-serine. The mobile phases consisted of 0.1% formic acid in water (solvent A) and 0.1% formic acid in acetonitrile (solvent B); chromatographic separation was performed with gradient elution method (see conditions below): • Compound 19 (0.0-0.5 min, 10% B; 0.5-3.0 min, gradient to 90% B; 3.0-5.0 min. 90% B; 5.0-6.0 min, gradient to 10% B; 6.0-10.0 min, 10% B—flow rate: 0.4 mL/min). • S^13C3-serine (0.0-0.5 min, 95% B; 0.5-4.0 min, gradient to 60% B; 4.0-5.0 min, 60% B; 5.0-6.0 min, gradient to 95% B; 6.0-10.0 min, 95% B—flow rate: 0.4 mL/min).
Mass spectrometric analysis was performed on a linear ion trap triple quadrupole mass spectrometer (4000 Q TRAP; AB SCIEX) equipped with a turbo spray ion source; mass spectrometer was operated in positive ion mode and quantification was achieved by multiple reaction monitoring (MRM) mode. Peak integration was performed using Analyst (version 1.6.2.). GraphPad Prism (version 8.1.2) was used for drawing graphs and for statistical analysis.
After 0.5 h from administration of Compound 19a at dose of 3, 10, 30, 100 and 300 mg/kg po, Compound 19 at dose of 300 mg/kg po or vehicle po (0.5% Tween 80, 0.5% Methylcellulose in H2O), mice received ^13C6-glucose by oral gavage (2 g/kg, Merck Life Science Srl). […] Blood was withdrawn by cardiac puncture and collected in heparin tubes.

[2] = test system: alpha smooth muscle actin (α-SMA); experiment: TGF-b induced α-SMA expression in NHLFs (Western blot); type: cell-based, Human; conditions: NHLF, TGF-β (10 ng/ml) 48 h
From the text: The antifibrotic activity of compounds of the present invention has been monitored measuring the expression of fibrotic mediators, collagen I (Col-I) and alpha smooth muscle actin (α-SMA) after treatment in lung cells with TGF-β in comparison with Nintedanib (see Frank Hilberg et al, Cancer Res 2008 Jun. 15; 68(12):4774-82), and allosteric inhibitor NCT-503 (see Hamanaka et al., Am J Respir Cell Mol Biol. 2018 May; 58(5):585-593).
Human normal lung fibroblasts (NHLFs) were purchased from Lonza (Basel, Switzerland). NHFLs were cultured in Eagle's Minimum Essential medium (EMEM) w/o serine and glycine, supplemented with 10% Fetal Bovine Serum (FBS), antibiotics (50 U/ml penicillin and 0.05 mg/ml streptomycin) and 2 mM L-glutamine, in an atmosphere of 95% air and 5% CO2 at 37° C. NHLFs cultures were used between passage 1 and 9. Before all the experiments, cells were incubated overnight in serum-free medium.
NHLFs were seeded in 12-well plates at cultured until 70% of confluency. To examine the expression of fibrotic markers, cells were treated with different concentrations of Compounds and NCT-503 in EMEM medium for 1 h followed by stimulation with TGF-β for 48 h at 37° C., 5% CO2. Following cell treatments, medium was removed and whole cell extracts were prepared by directly adding to the well the 1× loading buffer (125 mM Tris-HCl pH 6.8, 4% SDS, 0.2% Orange G, 50% glycerol, 2.5% β-mercaptoethanol, Li-cor Biosciences), boiled for 5 min and then electrophoresed on Mini protean TGX gel 4-12% (Biorad). After electrophoresis, proteins were transferred to a nitrocellulose membrane. Immunodetection of Col-I, α-SMA and glyceraldeide 3-phosphate dehydrogenase (GAPDH) were obtained by using mouse anti-CollA1 (Santacruz), mouse anti-α-SMA (sigma) and rabbit anti-GAPDH (Cell Signaling Technology) all diluted at 1:1000 in TBS-tween 0.1%. […] Detection and quantification were performed with Odyssey imaging system (Li-cor) using GAPDH as loading control.

[3] = test system: αSMA; experiment: Phenotypic assay: high content aSMA staining in NHLF cells; type: cell-based, Human; conditions: NHLF, 72 h incubation
Protocol: NHLF cells (Lonza #CC2512) were seeded as 2000 cells/well in 384-well plates in MEM medium w/o serine and glycine (Sigma #M2279)+1% pen/strep+5 mM L-glutamine +10% FBS and incubated overnight at 37° C., 5% CO2.
The next day, cells were washed with PBS and starvation MEM medium w/o serine and glycine (0% FBS) was added and cells were incubated overnight at 37° C., 5% CO2. The day after, cells were pre-incubated with compounds or vehicle (0.3% DMSO) for 1 h. Compounds were tested at 9 consecutive 3-fold dilutions starting from 30 μM. Each compound was tested in duplicate. Cells were further incubated for 72 h at 37° C., 5% CO2, 95% humidity. After 72 h of incubation, αSMA expression was quantified using immunostaining: • Fixation in 4% paraformaldehyde, • Blocking with 3% BSA, 2% FBS, 0.2% Triton-X in PBS, • Primary ab. anti-αSMA (AbCam #ab7817) diluted 500× in blocking buffer • Anti-mouse secondary ab. AF488 (ThermoFisher #A11029) • % of αSMA positive cells was determined by High Content Imaging (Molecular Device), data analysis was performed using MetaXpress software (Molecular Devices) and % of αSMA positive was further used to calculate % of inhibition for tested compounds. Total cell number was determined by Hoechst staining and % of viability over TGFβ stimulated controls was calculated.

For `CC(C)C(C(=O)O)c1ccc(C2(NC(=O)c3cc4c(Cl)c(Cl)ccc4n3C)CCOC2)cc1` (racemic) [Compound 19, (±)-2-(4-(3-(4,5-Dichloro-1-methyl-1H-indole-2-carboxamido)tetrahydro-furan-3-yl)phenyl)-3-methylbutanoic acid], the “brain serine concentration (in words)” value ([1]; 300 mg/kg po, 1 h) was “without reaching the statistical significance”, the “inhibition of labelled serine in brain” value ([1]; 300 mg/kg, any timepoint (1, 6.5, 24.5 h)) was “no significant inhibition” and the inhibition at 300 mg/kg ([1]; 300 mg/kg po, 1 h, read-out: inhibition of labelled serine in lung) was 85%. For the same molecule, the inhibition at 300 mg/kg ([1]; 300 mg/kg po, 1 h, read-out: inhibition of labelled serine in plasma) was 87%, the inhibition at 300 mg/kg ([1]; 300 mg/kg, at 1 and 6.5 h, read-out: inhibition of labelled serine in plasma and lung) was 70 to 85% and the “inhibition of release of α-SMA (comparison, FIG. 2)” value ([2]; Compound 19 50 uM vs NCT-503 50 uM and Nintedanib 1 uM) was “in a more efficacious manner than the NCT-503 (50 uM) and even more than the Nintedanib (1 uM)”. For the same molecule, the inhibition at 50 µM ([2]; Homo sapiens, 50 uM, read-out: TGF-b induced a-sma (% inh. 50 uM)) was 97% and the “aSMA pIC50” value [3] was 5.9.
